Assay results from patent US8293731B2, “HIV integrase inhibitors” (Merck Sharp + Dohme Corp., priority 2005, dated 2012).

system: HIV; test: Assay for inhibition of HIV replication (spread assay): acute HIV infection of T-lymphoid cells; assay type: cell-based; conditions: Human immunodeficiency virus 1, 'less than about'
Protocol: Assays for the inhibition of acute HIV infection of T-lymphoid cells were conducted in accordance with Vacca, J. P. et al., Proc. Natl. Acad. Set USA 1994, 91: 4096. […] For example, the compounds of Examples 1 to 64 were tested in this assay and found to have IC95 values of less than about 10 micromolar.

Compound | IC95 [µM]
C[C@H]1C[C@@H](O)CN(C)C(=O)c2c3c(c(O)c(=O)n21)C(=O)N(Cc1ccc(F)c(Cl)c1)CC3 [Example 43, (4R,6S)-11-(3-Ch1oro-4-fluorobenzyl)-4,9-dihydroxy-2,6-dimethyl-3,4,5,6,12,13-hexahydro-2H[1,4]diazocino[2,1-a]-2,6-naphthyridine-1,8,10(11H)-trione] | < 10
O=C1c2c(c3n(c(=O)c2O)CCCCN(CCN2CCCC2)C3=O)CCN1Cc1ccc(F)c(Cl)c1 [Example 17, 11-(3-Chloro-4-fluorobenzyl)-9-hydroxy-2-(2-pyrrolidinyl-1-ylethyl)-3,4,5,6,12,13-hexahydro-2H[1,4]diazocino[2,1-a]-2,6-naphthyridine-1,8,10(11H)-trione] | < 10
O=C1OCCCCn2c1c1c(c(O)c2=O)C(=O)N(Cc2ccc(F)c(Cl)c2)CC1 [Example 61, 11-(3-Chloro-4-fluorobenzyl)-9-hydroxy-3,4,5,6,12,13-hexahydro-[1,4]oxazocino[3,4-a]-2,6-naphthyridine-1,8,10(11H)-trione] | < 10
CC1CCCN(CCN2CCCCC2)C(=O)c2c3c(c(O)c(=O)n21)C(=O)N(Cc1ccc(F)c(Cl)c1)CC3 (stereo not shown) [Example 33, 11-(3-Chloro-4-fluorobenzyl)-9-hydroxy-2-(2-piperidinyl-1-ylethyl)-6-methyl-3,4,5,6,12,13-hexahydro-2H[1,4]diazocino[2,1-a]-2,6-naphthyridine-1,8,10(11H)-trione] | < 10
NC(=O)CN1CCCCn2c(c3c(c(O)c2=O)C(=O)N(Cc2ccc(F)c(Cl)c2)CC3)C1=O [Example 15, 2-[11-(3-Chloro-4-fluorobenzyl)-9-hydroxy-1,8,10-trioxo-1,3,4,5,6,8,10,11,12,13-deca-hydro-2H-[1,4]diazocino[2,1-a]-2,6-naphthyridin-2-yl]acetamide] | < 10
O=C1NCCCn2c1c1c(c(O)c2=O)C(=O)N(Cc2ccc(F)c(Cl)c2)CC1 [Example 4, 10-(3-Chloro-4-fluorobenzyl)-8-hydroxy-2,3,4,5,11,12-hexahydro[1,4]diazepino[2,1-a]-2,6-naphthyridine-1,7,9(10H)-trione] | < 10
CC(=O)OCCN1CCCCn2c(c3c(c(O)c2=O)C(=O)N(Cc2ccc(F)c(Cl)c2)CC3)C1=O [Example 10, 11-(3-Chloro-4-fluorobenzyl)-9-hydroxy-2-[2-(acetyloxy)ethyl]-3,4,5,6,12,13-hexahydro-2H[1,4]diazocino[2,1-a]-2,6-naphthyridine-1,8,10(11H)-trione] | < 10
O=C1OCCn2c1c1c(c(O)c2=O)C(=O)N(Cc2ccc(F)c(Cl)c2)CC1 [Example 7, 9-(3-Chloro-4-fluorobenzyl)-7-hydroxy-3,4,10,11-tetrahydro[1,4]oxazino[3,4-a]-2,6-naphthyridine-1,6,8(9H)-trione] | < 10
CC(=O)OCCCCN1C(=O)C(C)(C)n2c1c1c(c(O)c2=O)C(=O)N(Cc2ccc(F)c(Cl)c2)CC1 [Example 59, 8-(3-Chloro-4-fluorobenzyl)-6-hydroxy-1-(4-acetyloxybutyl)-3,3-dimethyl-1,8,9,10-tetrahydroimidazo[2,1-a]-2,6-naphthyridine-2,5,7(3H)-trione] | < 10
CC1(C)C(=O)N(CCCCO)c2c3c(c(O)c(=O)n21)C(=O)N(Cc1ccc(F)c(Cl)c1)CC3 [Example 56, 8-(3-Chloro-4-fluorobenzyl)-6-hydroxy-1-(4-hydroxybutyl)-3,3-dimethyl-1,8,9,10-tetrahydroimidazo[2,1-a]-2,6-naphthyridine-2,5,7(3H)-trione] | < 10
CC1C(=O)N(C)c2c3c(c(O)c(=O)n21)C(=O)N(Cc1ccc(F)c(Cl)c1)CC3 (stereo not shown) [Example 8, 8-(3-Chloro-4-fluorobenzyl)-6-hydroxy-1,3-dimethyl-1,8,9,10-tetrahydroimidazo[2,1-a]-2,6-naphthyridine-2,5,7(3H)-trione] | < 10
CC1(CCO)C(=O)N(CCO)c2c3c(c(O)c(=O)n21)C(=O)N(Cc1ccc(F)c(Cl)c1)CC3 (stereo not shown) [Example 60, 8-(3-Chloro-4-fluorobenzyl)-6-hydroxy-1,3-bis(2-hydroxyethyl)-3-methyl-1,8,9,10-tetrahydroimidazo[2,1-a]-2,6-naphthyridine-2,5,7(3H)-trione] | < 10
CC1(C)C(=O)N(CCO)c2c3c(c(O)c(=O)n21)C(=O)N(Cc1ccc(F)c(Cl)c1)CC3 [Example 54, 8-(3-Chloro-4-fluorobenzyl)-6-hydroxy-1-(2-hydroxyethyl)-3,3-dimethyl-1,8,9,10-tetrahydroimidazo[2,1-a]-2,6-naphthyridine-2,5,7(3H)-trione] | < 10
CN1CC(N2CCOCC2)CCn2c(c3c(c(O)c2=O)C(=O)N(Cc2ccc(F)c(Cl)c2)CC3)C1=O (stereo not shown) [Example 27, 11-(3-Chloro-4-fluorobenzyl)-9-hydroxy-2-methyl-4-morpholin-4-yl-3,4,5,6,12,13-hexahydro-2H[1,4]diazocino[2,1-a]-2,6-naphthyridine-1,8,10(11H)-trione] | < 10
CN(C)C(=O)CN1CCCCn2c(c3c(c(O)c2=O)C(=O)N(Cc2ccc(F)c(Cl)c2)CC3)C1=O [Example 13, 2-[11-(3-Chloro-4-fluorobenzyl)-9-hydroxy-1,8,10-trioxo-1,3,4,5,6,8,10,11,12,13-deca-hydro-2H-[1,4]diazocino[2,1-a]-2,6-naphthyridin-2-yl]-N,N-dimethylacetamide] | < 10
CC(=O)OCCN1C(=O)C(C)(C)n2c1c1c(c(O)c2=O)C(=O)N(Cc2ccc(F)c(Cl)c2)CC1 [Example 57, 8(3-Chloro-4-fluorobenzyl)-6-hydroxy-1-(2-acetyloxyethyl)-3,3-dimethyl-1,8,9,10-tetrahydroimidazo[2,1-a]-2,6-naphthyridine-2,5,7(3H)-trione] | < 10
COCCN1CCCCn2c(c3c(c(O)c2=O)C(=O)N(Cc2ccc(F)c(Cl)c2)CC3)C1=O [Example 22, 11-(3-Chloro-4-fluorobenzyl)-9-hydroxy-2-[2-(methoxy)ethyl]-3,4,5,6,12,13-hexahydro-2H[1,4]diazocino[2,1-a]-2,6-naphthyridine-1,8,10(11H)-trione] | < 10
O=C1c2c(c3n(c(=O)c2O)CCCCN(CCO)C3=O)CCN1Cc1ccc(F)c(Cl)c1 [Example 11, 11-(3-Chloro-4-fluorobenzyl)-9-hydroxy-2-(2-hydroxyethyl)-3,4,5,6,12,13-hexahydro-2H[1,4]diazocino[2,1-a]-2,6-naphthyridine-1,8,10(11H)-trione] | < 10
CN1CC(N2CCCC2)CCn2c(c3c(c(O)c2=O)C(=O)N(Cc2ccc(F)c(Cl)c2)CC3)C1=O (stereo not shown) [Example 26, 11-(3-Chloro-4-fluorobenzyl)-9-hydroxy-2-methyl-4-pyrrolidin-1-yl-3,4,5,6,12,13-hexahydro-2H[1,4]diazocmo[2,1-a]-2,6-naphthyridine-1,8,10(11H)-trione] | < 10
CN1CC(C)(C)CCn2c(c3c(c(O)c2=O)C(=O)N(Cc2ccc(F)c(Cl)c2)CC3)C1=O [Example 45, 11-(3-Chloro-4-fluorobenzyl)-9-hydroxy-2,4,4-trimethyl-3,4,5,6,12,13-hexahydro-2H[1,4]diazocino[2,1-a]-2,6-naphthyridine-1,8,10(11H)trione] | < 10
CC1CCCN(C)C(=O)c2c3c(c(O)c(=O)n21)C(=O)N(Cc1ccc(F)c(Cl)c1)CC3 (stereo not shown) [Example 28, 11-(3-Chloro-4-fluorobenzyl)-9-hydroxy-2,6-dimethyl-3,4,5,6,12,13-hexahydro-2H[1,4]diazocino[2,1-a]2,6-naphthyridine-1,8,10(11H)-trione] | < 10
CN1CC(O)CCn2c(c3c(c(O)c2=O)C(=O)N(Cc2ccc(F)c(Cl)c2)CC3)C1=O (single isomer, unassigned) [Example 23, 11-(3-Chloro-4-fluorobenzyl)-4,9-dihydroxy-2-methyl-3,4,5,6,12,13-hexahydro-2H[1,4]diazocino[2,1-a]-2,6-naphthyridine-1,8,10(11H)-trione] | < 10
O=C1OCCCn2c1c1c(c(O)c2=O)C(=O)N(Cc2ccc(F)c(Cl)c2)CC1 [Example 62, 10-(3-Chloro-4-fluorobenzyl)-8-hydroxy-4,5,11,12-tetrahydro-3H-[1,4]oxazepino[3,4-a]-2,6-naphthyridine-1,7,9(10H)-trione] | < 10
CC(=O)OCC1Cn2c(c3c(c(O)c2=O)C(=O)N(Cc2ccc(F)c(Cl)c2)CC3)C(=O)O1 (stereo not shown) [Example 63, 9-(3-Chloro-4-fluorobenzyl)-7-hydroxy-3-(acetyloxymethyl)-3,4,10,11-tetrahydro[1,4]oxazino[3,4-a]-2,6-naphthyridine-1,6,8(9H)-trione] | < 10
CNC(=O)CN1CCCCn2c(c3c(c(O)c2=O)C(=O)N(Cc2ccc(F)c(Cl)c2)CC3)C1=O [Example 14, 2-[11-(3-Chloro-4-fluorobenzyl)-9-hydroxy-1,8,10-trioxo-1,3,4,5,6,8,10,11,12,13-deca-hydro-2H-[1,4]diazocino[2,1-a]-2,6-naphthyridin-2-yl]-N-methylacetamide] | < 10
C=C1CCCN(C)C(=O)c2c3c(c(O)c(=O)n21)C(=O)N(Cc1ccc(F)c(Cl)c1)CC3 [Example 50, 11-(3-chloro-4-fluorobenzyl)-9-hydroxy-2-methyl-6-methylene-3,4,5,6,12,13-hexahydro-2H-[1,4]diazocino[2,1-a]2,6-naphthyridine-1,8,10(11H)trione] | < 10
CN1CCC[C@H](CO)n2c(c3c(c(O)c2=O)C(=O)N(Cc2ccc(F)cc2)CC3)C1=O [Example 48, (6R) 11-(4-Fluorobenzyl)-9-hydroxy-6-(hydroxymethyl)-2-methyl-3,4,5,6,12,13-hexahydro-2H-[1,4]diazocino[2,1-a]2,6-naphthyridine-1,8,10(11H)-trione] | < 10
CN1CC(=O)CCn2c(c3c(c(O)c2=O)C(=O)N(Cc2ccc(F)c(Cl)c2)CC3)C1=O [Example 25, 11-(3-Chloro-4-fluorobenzyl)-9-hydroxy-2-methyl-5,6,12,13-tetrahydro-2H[1,4]diazocino[2,1-a]-2,6-naphthyridine-1,4,8,10(3H, 11H)-tetrone] | < 10
